One assay has as its system HeLa. In words: Cytotoxicity against human HeLa cells by MTT assay. The assay is classed as functional, cell-based. (Tetrazolium dyes change colour on reduction, which living cells bring about.)
The nature of assay [1]: Cytotoxicity against CV1 cells by MTT assay. As to conditions: Chlorocebus aethiops, CV-1. It is filed as cell-based.
The next assay has as its system P388. The assay can be described thus: Cytotoxicity against mouse P388 cells by MTT assay. It is filed as functional, cell-based.

The record followed here is ChEMBL document CHEMBL1146291, “Structure-activity delineation of quinones related to the biologically active Calothrixin B” (Bioorg Med Chem Lett, 2007).

For `CC1=CC(=O)c2c([nH]c3ccccc23)C1=O`, the EC50 – broadly, the concentration giving half of the maximal effect – in the assay on HeLa is 7 µM; in assay [1], 1.7 µM; in the assay on P388 it was 1 µM.
Regarding `O=C1C=CC(=O)c2c1[nH]c1ccccc21`, the EC50 (in the assay with HeLa; in assay [1]; in the assay on P388) was over 50 µM throughout.
`O=C1c2[nH]c3ccccc3c2C(=O)c2ccc3ccccc3c21`: the EC50 in the assay with HeLa was 1.5 µM; in assay [1], over 50 µM; in the assay on P388, over 50 µM.
On to `O=C1c2ccccc2C(=O)c2c1[nH]c1ccccc21` [BENZOCARBAZOLEDIONE], for which the EC50 in the assay on HeLa is 1.8 µM; in assay [1] it was over 50 µM; with P388, over 50 µM.
Turning to `O=C1c2[nH]c3ccccc3c2C(=O)c2cnc3ccccc3c21` [CALOTHRIXIN B], the half-maximal effective concentration (EC50) in the assay on HeLa turned out to be 0.25 µM; in assay [1], 2.4 µM; in the assay with P388, 9 µM.
In the case of `CC1=CC(=O)c2[nH]c3ccccc3c2C1=O` [MURRAYAQUINONE A], the EC50 with HeLa is 13 µM; in assay [1] it was 10 µM; in the assay with P388, 2.3 µM.
